Measurements published in US20240148723A1, “MYCOBACTERIUM TUBERCULOSIS COMPOSITIONS AND METHODS” (priority 2021, published 2024).
In brackets after ≈: the same amount, converted by molar mass.

Each compound was assayed on M. tuberculosis. Conditions: pH 6.8.
Assay type: cell-based, Mycobacterium tuberculosis

SMILES | MIC in the media 7H9 | MIC in the media L-Ala | MIC in the media SBA | MIC in the media SLac
CCOc1ccc(N=Nc2ccc(N)cc2N)cc1 [compound 190374] | ≥ 6.41 µg/mL | 3.20 µg/mL (≈ 12.5 µM) | 6.41 µg/mL (≈ 25 µM) | 3.20 µg/mL (≈ 12.5 µM)
CCCOC(=O)c1ccc(N)cc1 [compound 23516] | ≥ 800 µg/mL | 0.12 µg/mL (≈ 0.67 µM) | 0.25 µg/mL (≈ 1.39 µM) | 0.25 µg/mL (≈ 1.39 µM)
N#CC(c1ccccc1)C(CC(=NO)c1ccccc1)c1ccccc1 (mixture of isomers) [compound 186200] | ≥ 136.16 µg/mL | 17.02 µg/mL | 34.04 µg/mL | 2.13 µg/mL
O=c1c(-c2ccc(O)cc2)coc2cc(O)cc(O)c12 [compound 36586] | ≥ 108.10 µg/mL | 13.51 µg/mL (≈ 50 µM) | 13.51 µg/mL (≈ 50 µM) | 1.69 µg/mL (≈ 6.25 µM)
O=C(O)c1cc2ccccc2cc1Nc1ccccc1 [compound 40275] | ≥ 26.33 µg/mL | 3.29 µg/mL (≈ 12.5 µM) | 3.29 µg/mL (≈ 12.5 µM) | 0.84 µg/mL (≈ 3.19 µM)
NC(=O)c1ccc(N)cc1 [compound 36963] | ≥ 54.48 µg/mL | 6.81 µg/mL (≈ 50 µM) | 13.62 µg/mL (≈ 100 µM) | 3.41 µg/mL (≈ 25 µM)
O=[N+]([O-])c1oc2ccc3ccccc3c2c1CCO [compound 373981] | ≥ 0.82 µg/mL | 0.82 µg/mL (≈ 3.19 µM) | 0.82 µg/mL (≈ 3.19 µM) | 0.82 µg/mL (≈ 3.19 µM)
CSc1nc(=O)[nH]nc1Sc1ccccc1 [compound 134058] | ≥ 25.13 µg/mL | 6.28 µg/mL (≈ 25 µM) | 3.14 µg/mL (≈ 12.5 µM) | 3.14 µg/mL (≈ 12.5 µM)
OC(COc1ccc(Cl)cc1)CN1CCN(c2cccc(Cl)c2)CC1 (stereo not shown) [compound 91340] | ≥ 38.13 µg/mL | 4.77 µg/mL (≈ 12.5 µM) | 9.53 µg/mL (≈ 25 µM) | 4.77 µg/mL (≈ 12.5 µM)
O=C1CC(c2ccc(O)cc2)Oc2cc(O)cc(O)c21 (stereo not shown) [compound 34875] | ≥ 27.23 µg/mL | 6.81 µg/mL (≈ 25 µM) | 6.81 µg/mL (≈ 25 µM) | 1.70 µg/mL (≈ 6.24 µM)
COc1ccc(C2CC(=O)c3c(O)cc(O)cc3O2)cc1O (stereo not shown) [compound 57654] | ≥ 120.91 µg/mL | 7.56 µg/mL (≈ 25 µM) | 7.56 µg/mL (≈ 25 µM) | 1.89 µg/mL (≈ 6.25 µM)
CN1CCN(c2ccc(C(=O)Nc3n[nH]c4ccc(Cc5cc(F)cc(F)c5)cc34)c(NC3CCOCC3)c2)CC1 [compound 774769] | ≥ 28.03 µg/mL | 7.01 µg/mL (≈ 12.5 µM) | 3.50 µg/mL (≈ 6.24 µM) | 3.50 µg/mL (≈ 6.24 µM)
Cc1ccc([S+]([O-])c2ccc([N+](=O)[O-])c3nonc23)cc1 (stereo not shown) [compound 228150] | ≥ 30.33 µg/mL | 7.58 µg/mL (≈ 25 µM) | 3.79 µg/mL (≈ 12.5 µM) | 3.79 µg/mL (≈ 12.5 µM)
Oc1ccc(Cc2ccc(Cl)cc2)c(O)c1 [compound 11150] | ≥ 23.47 µg/mL | 5.87 µg/mL (≈ 25 µM) | 2.93 µg/mL (≈ 12.5 µM) | 1.47 µg/mL (≈ 6.26 µM)
Oc1ccc(Cl)cc1Sc1cc(Cl)ccc1O [compound 55636] | ≥ 114.88 µg/mL | 1.80 µg/mL (≈ 6.27 µM) | 0.92 µg/mL (≈ 3.2 µM) | 0.92 µg/mL (≈ 3.2 µM)
c1ccc2c(c1)Sc1ccccc1N2CC1CN2CCC1CC2 (stereo not shown) [compound 303612] | ≥ 16.13 µg/mL | 8.06 µg/mL (≈ 25 µM) | 8.06 µg/mL (≈ 25 µM) | 4.03 µg/mL (≈ 12.5 µM)
C1C2CC3C1C3/C2=N\N=C1/C2CC3C(C2)C13 [compound 122987] | ≥ 88.52 µg/mL | 1.38 µg/mL (≈ 6.5 µM) | 11.06 µg/mL (≈ 52.1 µM) | 5.53 µg/mL (≈ 26 µM)
NC1(N2SC(S)=C3CCCC=C32)CCCCC1 [compound 327444] | ≥ 26.84 µg/mL | 6.71 µg/mL (≈ 25 µM) | 13.42 µg/mL (≈ 50 µM) | 3.36 µg/mL (≈ 12.5 µM)
OC(c1cc(-c2ccc(C(F)(F)F)cc2)nc(C(F)(F)F)c1)C1CCCCN1 (stereo not shown) [compound 305798] | ≥ 10.11 µg/mL | 1.25 µg/mL (≈ 3.09 µM) | 2.53 µg/mL (≈ 6.26 µM) | 2.53 µg/mL (≈ 6.26 µM)
CS(=O)(=O)O.OC(c1cc(C(F)(F)F)nc2c(Cl)cc(Cl)cc12)C1CCCCN1 (stereo not shown) [compound 322661] | ≥ 11.88 µg/mL | 2.97 µg/mL | 1.52 µg/mL | 2.97 µg/mL

SMILES | MIC in the media 7H9 | MIC in the media L-Ala | MIC in the media SBA | MIC in the media SLac
N=C(N)c1ccc(OCCCCCOc2ccc(C(=N)N)cc2)cc1 [compound 9921] | ≥ 8.51 µg/mL | 2.13 µg/mL (≈ 6.26 µM) | 4.26 µg/mL (≈ 12.5 µM) | 1.09 µg/mL (≈ 3.2 µM)
O=[N+]([O-])c1ccc(Sc2cccc[n+]2[O-])c2nonc12 [compound 228155] | ≥ 0.93 µg/mL | 0.93 µg/mL (≈ 3.2 µM) | 0.93 µg/mL (≈ 3.2 µM) | 0.93 µg/mL (≈ 3.2 µM)
NN=C1C(Cl)=C(Cl)C(Cl)=C1Cl [compound 126405] | ≥ 23.19 µg/mL | 5.80 µg/mL (≈ 25 µM) | 5.80 µg/mL (≈ 25 µM) | 5.80 µg/mL (≈ 25 µM)
Cc1ccc(NC(c2ccccc2)c2ccc3cccnc3c2O)cc1 (stereo not shown) [compound 84093] | ≥ 136.16 µg/mL | 17.02 µg/mL (≈ 50 µM) | 2.13 µg/mL (≈ 6.26 µM) | 2.13 µg/mL (≈ 6.26 µM)
CC(C)c1ccc2c(c1)CCC1C(C)(C(=O)O)CCCC21C (stereo not shown) [compound 2952] | ≥ 30.04 µg/mL | 3.76 µg/mL (≈ 12.5 µM) | 7.51 µg/mL (≈ 25 µM) | 1.88 µg/mL (≈ 6.26 µM)
Cc1cc(C(C#N)c2ccc(Cl)cc2)c(Cl)cc1NC(=O)c1cc(I)cc(I)c1O (stereo not shown) [compound 335306] | ≥ 66.31 µg/mL | 4.14 µg/mL (≈ 6.24 µM) | 4.14 µg/mL (≈ 6.24 µM) | 4.14 µg/mL (≈ 6.24 µM)
CN(C)CCCN1c2ccc3ccccc3c2Sc2cccc(Cl)c21 [compound 24113] | ≥ 9.22 µg/mL | 2.31 µg/mL (≈ 6.26 µM) | 2.31 µg/mL (≈ 6.26 µM) | 1.18 µg/mL (≈ 3.2 µM)
O=[N+]([O-])c1cnc(Sc2ccncn2)s1 [compound 311727] | ≥ 24.03 µg/mL | 0.77 µg/mL (≈ 3.2 µM) | 0.77 µg/mL (≈ 3.2 µM) | 0.77 µg/mL (≈ 3.2 µM)
CCC(C)(C)c1ccc(Oc2cccc(C(=O)O)c2)cc1 [compound 7962] | ≥ 28.43 µg/mL | 3.55 µg/mL (≈ 12.5 µM) | 3.55 µg/mL (≈ 12.5 µM) | 0.45 µg/mL (≈ 1.58 µM)
CC[C@@]1([C@@H]2O[C@@H]([C@H]3O[C@@](O)(CO)[C@H](C)C[C@@H]3C)C[C@@H]2C)CC[C@H]([C@]2(C)CC[C@]3(C[C@H](O)[C@@H](C)[C@@H]([C@@H](C)[C@@H](OC)[C@H](C)C(=O)[O-])O3)O2)O1.[Na+] [compound 343257] | ≥ 4.33 µg/mL | 4.33 µg/mL | 4.33 µg/mL | 8.66 µg/mL
O=C(c1ccc(F)c(F)c1Nc1ccc(I)cc1F)N1CC(O)(C2CCCCN2)C1 (stereo not shown) [compound 768068] | ≥ 26.57 µg/mL | 13.28 µg/mL (≈ 25 µM) | 3.32 µg/mL (≈ 6.25 µM) | 3.32 µg/mL (≈ 6.25 µM)
C=CCOc1c(CCC)cc(CCC)cc1C(N)=O [compound 37955] | ≥ 26.14 µg/mL | 13.07 µg/mL (≈ 50 µM) | 13.07 µg/mL (≈ 50 µM) | 3.27 µg/mL (≈ 12.5 µM)
Sc1nc2cc(-c3ccccc3)ccc2o1 [compound 93817] | ≥ 22.73 µg/mL | 1.42 µg/mL (≈ 6.25 µM) | 0.73 µg/mL (≈ 3.21 µM) | 0.73 µg/mL (≈ 3.21 µM)
O=C1C(O)=C(c2ccccc2)C(=O)C(O)=C1c1ccccc1 [compound 44175] | ≥ 29.23 µg/mL | 7.31 µg/mL (≈ 25 µM) | 3.65 µg/mL (≈ 12.5 µM) | 3.65 µg/mL (≈ 12.5 µM)
NC(=O)c1cccc(N)c1 [compound 36962] | ≥ 54.48 µg/mL | 13.62 µg/mL (≈ 100 µM) | 13.62 µg/mL (≈ 100 µM) | 13.62 µg/mL (≈ 100 µM)
COC1C=COC2(C)Oc3c(C)c(O)c4c(O)c(cc(O)c4c3C2=O)NC(=O)C(C)=CC=CC(C)C(O)C(C)C(O)C(C)C(OC(C)=O)C1C (stereo not shown) [compound 133100] | ≥ 0.56 µg/mL | 0.56 µg/mL (≈ 0.803 µM) | 0.56 µg/mL (≈ 0.803 µM) | 0.56 µg/mL (≈ 0.803 µM)
O=C1c2cccc3cc([N+](=O)[O-])cc(c23)C(=O)N1CCN1CCCC1 [compound 300289] | ≥ 8.48 µg/mL | 4.24 µg/mL (≈ 12.5 µM) | 2.12 µg/mL (≈ 6.25 µM) | 2.12 µg/mL (≈ 6.25 µM)
Cc1ccc(NCCN(C)C)c2c(=O)c3cc(O)ccc3sc12.I [compound 317003] | ≥ 5.70 µg/mL | 2.85 µg/mL | 2.85 µg/mL | 1.46 µg/mL
O=C(CCc1ccc(O)cc1)c1c(O)cc(O)cc1O [compound 407292] | ≥ 109.72 µg/mL | 1.71 µg/mL (≈ 6.23 µM) | 3.43 µg/mL (≈ 12.5 µM) | 1.71 µg/mL (≈ 6.23 µM)
Oc1c(N=Nc2nn[nH]n2)ccc2ccccc12 [compound 338106] | ≥ 3.00 µg/mL | 1.50 µg/mL (≈ 6.24 µM) | 1.50 µg/mL (≈ 6.24 µM) | 0.77 µg/mL (≈ 3.21 µM)
